Source: US20210008070A1, “TARGETING MINIMAL RESIDUAL DISEASE IN CANCER WITH CD36 ANTAGONISTS” (VIB VZW, priority 2018, published 2021)

Key:
MM52 cells = experiment: Colony assay / Cell Titer Glo in short-term melanoma culture MM52; assay type: cell-based, human
Method: D) Colony assay performed over 7 days.
E) and Cell Titer Glo assay performed after 6 days after incubation of the short culture melanoma line MM052 with MEK inhibitor trametinib (TRA; […]; 1 uM), FAK inhibitor PF-562271 (1 uM) and RXRG antagonist HX531 (2 uM)
Cells were grown to near confluency on 12well plates and treated with the indicated drug combinations for the indicated time period. Cells were washed once with PBS, stained with crystal violet (1% crystal violet w/v, 35% methanol v/v) for 15 min, washed with PBS and destained in tap water.
1.15. Cell Titer Glo 2500 cells were plated onto a 96 well plate and treated with the indicated drug combinations for the indicated time period. Cell Titer Glo assay was performed according to the manufacturer's instruction (Promega) and luminescence was measured on a VictorX3 (Perkin Elmer).

RAR receptors = details: cited from earlier work
[1] = tested on: GFRA2-positive MEL006 cells; experiment: FACS of GFRA2-positive cells in MEL006 cultures
Method: Cells were resuspended in FACS sorting buffer (culture medium supplied with 1% EDTA 100 mM).

SMILES: C=C(c1ccc(C(=O)O)cc1)c1cc2c(cc1C)C(C)(C)CCC2(C)C [bexarotene]
- long-term growth inhibition (MM52 cells; alone): did not induce measurable long-term growth inhibition
- sensitivity to a combination of trametinib/FAK-inhibitors (MM52 cells; bexarotene added): increased the sensitivity
- sensitivity of MM52 cells to trametinib (MM52 cells; bexarotene at concentrations as low as 10 nM): significantly decreased the sensitivity
- cells with cell death (MM52 cells; bexarotene with trametinib/FAK-inhibitors, after 3 days of treatment): ~100%

SMILES: CC1(C)CCC(C)(C)c2cc(C3(c4ccc(C(=O)O)cc4)OCCO3)ccc21 [SR 11237]
- RAR activity (RAR receptors): devoid of any RAR activity

SMILES: CN1c2ccc([N+](=O)[O-])cc2N=C(c2ccc(C(=O)O)cc2)c2cc3c(cc21)C(C)(C)CCC3(C)C [HX531]
- drug-dependent induction of GFRA2-positive cells ([1]; with IC50 concentrations of BRAF and MEK-inhibitors): completely inhibited emergence
- sensitivity of MM52 cells to trametinib (MM52 cells; HX531 plus trametinib): sensitized these cells to trametinib

SMILES: CN(c1ncccc1CNc1nc(Nc2ccc3c(c2)CC(=O)N3)ncc1C(F)(F)F)S(C)(=O)=O [PF-562271]
- drug-dependent emergence of the GFRA2-high cell population ([1]; added to DT): diminished the drug-dependent emergence of the GFRA2-high cell population in a dose-dependent manner
